Results as given in the supplement of paper PMC8671470.

Columns and labels:
Settings in all cases: 72 h
[1] = tested on: KG-1; test: cell viability (% survival relative to DMSO control, bortezomib = 0%); higher = less cytotoxic
Outline: (§1)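 Reported values are percent survival from duplicate wells, averaged. Fifteen myeloid leukaemia cell lines were treated in 384-well plates with compounds at 1, 10, 100, 1000 or 10000 nM for 72 h at 37 °C in 5% CO2. Signals from CellTiter-Glo luminescence were scaled with vehicle as 100% and a 10 µM positive control as 0%.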

[2] = tested on: MOLM-13; test: as above
Outline: as §1

[3] = tested on: LAMA-84; test: as above
Outline: as §1

[4] = tested on: KCL-22; test: as above
Outline: as §1

[5] = tested on: HEL; test: as above
Outline: as §1

[6] = tested on: THP-1; test: as above
Outline: as §1

[7] = tested on: HL-60; test: as above
Outline: as §1

[8] = tested on: K-562; test: as above
Outline: as §1

[9] = tested on: BV-173; test: as above
Outline: as §1

[10] = tested on: KU-812; test: as above
Outline: as §1

[11] = tested on: SHI-1; test: as above
Outline: as §1

[12] = tested on: NOMO-1; test: as above
Outline: as §1

[13] = tested on: ML-2; test: as above
Outline: as §1

[14] = tested on: MV4-11; test: as above
Outline: as §1

[15] = tested on: Mono-Mac-6; test: as above
Outline: as §1

[16] = tested on: HL-60; test: area under dose-response curve (viability, 1 nM-10 uM) (fraction (0-1)); higher = more sensitive
Outline: (§2)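 Four-parameter log-logistic fits in drc and PharmacoGx supplied area under the curve where it is given. Underlying viability came from CellTiter-Glo, normalised to DMSO and proteasome-inhibitor wells, with the proteasome inhibitor at 10 μM. HL-60 cells in RPMI 1640 plus 10% FBS had been rescreened against the full library at five tenfold concentrations of 1–10,000 nM, in duplicate on 384-well plates, with DMSO or 100 nM of one of three metabolic inhibitors, for 72 h at 37 °C, 5% CO2.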

[17] = tested on: MV4-11
Outline: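 The IC50 was derived from log-logistic dose–response fitting. Each of fifteen myeloid leukaemia cell lines, seeded in RPMI 1640 within its linear growth range, was exposed in 384-well plates to five tenfold doses (1 to 10,000 nM) in duplicate for 72 h at 37 °C and 5% CO2. Luminescent ATP viability readings were normalised to vehicle and to a positive control at 10 µM before four-parameter curve fitting.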

[18] = tested on: HL-60; test: cell viability (% survival relative to DMSO control); higher = less cytotoxic
Outline: as §2

CC(C)c1onc(-c2c(Cl)cccc2Cl)c1COc1ccc(/C=C/c2cccc(C(=O)O)c2)c(Cl)c1 [GW4064]
Settings	area under dose-response curve, co-treatment: AZD3965 100 nM	area under dose-response curve, co-treatment: DMSO vehicle	area under dose-response curve, co-treatment: pictilisib 100 nM	cell viability, 1 nM [%]	cell viability, 10 nM [%]	cell viability, 100 nM [%]	cell viability, 1000 nM [%]	cell viability, 10000 nM [%]
[1]	–	–	–	85.6	81.5	95.8	76.8	51.2
[2]	–	–	–	147	108	93.8	86.7	-0.111
[3]	–	–	–	105	103	94.2	85.3	43.4
[4]	–	–	–	91.5	93.8	96	85.6	31.7
[5]	–	–	–	85.7	87.2	86.8	87	66.7
[6]	–	–	–	88.8	92.3	91.5	90.5	54.6
[7]	–	–	–	115	93.8	89.7	109	51.5
[8]	–	–	–	109	107	105	90.9	49.4
[9]	–	–	–	111	96.2	92.3	87.7	37.4
[10]	–	–	–	96.8	99.7	90.7	85.1	76
[11]	–	–	–	110	99.3	101	95.9	53
[12]	–	–	–	102	99.3	94	95.8	89.5
[13]	–	–	–	95.6	86.2	84	86.2	68.5
[14]	–	–	–	110	107	78.6	68.2	6.8
[15]	–	–	–	104	87.6	95.9	86.7	67.7
[16]	< 0.0301	< 0.0301	< 0.0301	–	–	–	–	–

Settings	IC50 (cell viability) [µM]
[17]	1.6

cell viability [%], [18]
Settings	0.001 µM	0.01 µM	0.1 µM	1 µM	10 µM
co-treatment: AZD3965 100 nM	102	98.93	91	109	93.1
co-treatment: DMSO vehicle	99.99	99.3	101	99.9	99.6
co-treatment: GSK2194069 100 nM	99.3	98.9	97.7	90.85	75.5
co-treatment: pictilisib 100 nM	86.7	96.6	90.9	105	97.1

Cc1c(-c2ccc(-c3ccccc3F)cc2)nc2ccc(F)cc2c1C(=O)O [Brequinar]
Settings	area under dose-response curve, co-treatment: pictilisib 100 nM	cell viability, 1 nM [%]	cell viability, 10 nM [%]	cell viability, 100 nM [%]	cell viability, 1000 nM [%]	cell viability, 10000 nM [%]
[1]	–	105	102	95	105	99
[2]	–	80.9	84.4	85.3	95.9	9.24
[3]	–	97.3	98.2	94.2	102	47.4
[4]	–	101	94.3	97.9	56.3	29.2
[5]	–	101	99.2	102	69	27.8
[6]	–	99.9	98.5	99	102	83.3
[7]	–	98.5	95.8	93.2	82.7	50
[8]	–	98.1	89.2	92.9	103	40.4
[9]	–	94.7	90.3	93.3	118	32.2
[10]	–	87.2	95.4	93.1	100	80.8
[11]	–	85.3	99	103	111	63.9
[12]	–	97.3	95.3	104	104	89.5
[13]	–	97.2	98.2	88.9	107	40.3
[14]	–	106	100	94.3	110	36.8
[15]	–	103	95.9	97.9	91.9	50.2
[16]	< 0.0301	–	–	–	–	–

Settings	IC50 (cell viability) [µM]
[17]	7.76

cell viability [%], [18]
Settings	0.001 µM	0.01 µM	0.1 µM	1 µM	10 µM
co-treatment: AZD3965 100 nM	98.8	99.3	78.9	84.4	68.2
co-treatment: DMSO vehicle	99.9	98.8	81.4	87.8	81.3
co-treatment: GSK2194069 100 nM	96.8	103	84.9	86.9	76.8
co-treatment: pictilisib 100 nM	91.4	101	86.8	87.3	93
